According to patent US6743895B1, “Bone stimulating factor” (Osteopharm Inc., priority 1995, dated 2004):
Residues, ends and D or L forms follow the SMILES beside them. No end group written: not given here.

Experiments:
[1] = tested on: ovariectomized rats; assay: Full autopsy after four week administration to ovariectomized rats; type: in vivo, Sprague-Dawley rats; conditions: 100 μg s.c. every 24 hours for 28 days
Description: The six ovariectomized rats were injected subcutaneously with 100 μl of a 0.1% acetic acid solution containing 100 μg of the chemically synthesized peptide (SEQ ID NO:1) every 24 hours for 28 days. On day 25, a tetracycline hydrochloride solution was injected intramuscularly into each rat so as to give 24 mg per Kg of body weight, as described previously. On day 27, a second dose of tetracycline hydrochloride was injected and the rats were sacrificed on the 28th day.
Post-mortem blood was taken by cardiac puncture and serum frozen until analyzed. A full autopsy was performed on each rat.

[2] = tested on: ovariectomized rats; assay: Autopsy after eight week administration to ovariectomized rats; type: in vivo, rat; conditions: 100 μg s.c. every 24 hours for eight weeks
Description: Eight weeks after ovariectomization, five ovariectomized rats were injected subcutaneously with 100 μl of a 0.1% acetic acid solution containing 100 μg of the chemically synthesized peptide in which the N-terminal amino group was modified with an acetyl group (SEQ ID NO:2). This was done every 24 hours for eight weeks. On day 54, a tetracycline hydrochloride solution was injected intramuscularly into the right gluteus maximus of each rat so as to give 24 mg per Kg of body weight, as described previously. On day 56, a second dose of tetracycline hydrochloride was injected and the rats were sacrificed on the 57th day.
Post-mortem blood was taken by cardiac puncture and serum frozen until analyzed. An autopsy was performed on each rat.

[3] = tested on: parathyroidectomized rats; assay: Histological evaluation of selected tissues (toxicity experiments); type: in vivo, rat; conditions: miniosmotic pump, about 25 μg per day
Description: A miniosmotic pump (Alzet) was loaded with about 1.5 ml of the chemically synthesized peptide having an N-terminal acetyl group (SEQ ID NO:2) in 0.1% acetic acid so as to give a calculated daily delivery of about 25 μg per day. A pump was implanted under the subcutaneous fascia of the dorsal aspect of the left side of the thorax of five rats which had been parathyroldectomized seven days earlier. Five similarly parathyroldectomized rats received similar implants containing only 0.1% acetic acid. Five intact rats were also used as controls.
Histological evaluation of selected tissues of the five rats of each of the groups indicated in Table One were carried out microscopically.

[4] = Stability of dissolved polypeptides (capillary electrophoresis, RP-HPLC); type: physicochemical; conditions: 37° C.
Description: Each of the polypeptides having the sequences identified as SEQ ID NO: 7 and 24 was dissolved in 5 mM acetic acid to a final concentration of 1 mg/ml and incubated at 37° C. The peptide compositions were analyzed weekly by capillary electrophoresis on a P/ACE 6000 system (Beckman) using 50 mM sodium phosphate pH 2.5 as the running buffer on a 57 cm long×75 μm internal diameter capillary. The incubated peptide (20 μl) was diluted with 80 μl of running buffer, placed in a 500 μl vial prior to injection onto the P/ACE using pressure for 20 seconds. Following electrophoresis of the incubated peptide at 30 kV for 15 min a second run was carried out using freshly dissolved peptide as a control.
Each of the polypeptides was dissolved in 20 mM sodium phosphate pH 3.0, 20 mM ammonium acetate pH 4.0, 20 mM ammonium acetate pH 5.0, 20 mM MES pH 6.0, 20 mM sodium phosphate pH 7.0, 20 mM sodium phosphate pH 7.5, 20 mM sodium phosphate pH 8.0, 20 mM ammonium acetate pH 8.5 or 20 mM ammonium acetate pH 9.5 to a final concentration of 1 mg/ml. The peptide was incubated at 37° C. and the peptide assayed weekly by separation on P/ACE as described above. Some samples were separated by RP-HPLC and the isolated peaks subjected to mass spectroscopic analysis.
The protected polypeptide identified as SEQ ID NO:24 was dissolved in 20 mM or 250 mM ammonium acetate pH 4.5 to a final concentration of 1 mg/ml. In some experiments the buffer was supplemented with 20 mM EDTA. The peptide solution was then incubated at −70° C., −20° C., 4° C. or room temperature (22° C.). Samples were assayed weekly by electrophoresis on the P/ACE as described above and/or by RP-HPLC.
The stability of each of the polypeptides having the amino acid sequences identified as SEQ ID NOs: 25, 26 and 27 was tested as described above.

[5] = tested on: ovariectomized rats; assay: Bone mineral (calcium) content by DEXA in ovariectomized rats; type: in vivo, rat; conditions: 25 nmoles s.c. each day
Description: Ovariectomies were performed on rats as described above. A 0.1% acetic acid solution containing 25 nmoles of the polypeptide was administered subcutaneously to each rat each day for the duration of the experiment. […] Another group of rats was treated for eight weeks beginning eight weeks after ovariectomization. Rats were sacrificed at the end of the treatment period and dissected and post mortem assessment of bone mineral content was carried out. The lumbar spines L1-L4 were cleaned with a power nylon brush to remove the attached muscle. They were placed ventral side down under 3 cm of distilled water in a polypropylene container and scanned by a dual energy x-ray absorptometer (DEXA). Hologic 100, to determine the calcium content in grams. The right femur of each rat was also dissected out intact and cleared of the attached muscles with a power nylon brush. It was scanned dorsal side down under 3 cm of distilled water by DEXA. Four regions of the femur were scanned, as indicated in FIGS. 10 and 11: A, proximal end; B, diaphysis; C, distal end; and D, neck. The bone mineral (i.e., calcium) content in grams was estimated in the four zones of the femur based on absorption and using an internal standard of the machine.

[6] = tested on: rats; assay: Bone mineral apposition rate in intact rats after subcutaneous injection of polypeptide, tetracycline labelling; type: in vivo, Sprague-Dawley rats
Description: Experiments were carried out on three groups of six rats weighing between 295 and 320 g. A 1 mg per ml solution of the modified peptide (SEQ ID NO:3) was prepared in 0.1% acetic acid. A 1 mg per ml solution of the normal peptide (SEQ ID NO:1) was prepared in 0.1% acetic acid. Each rat of a first of the groups had subcutaneously injected into its right thigh 0.1 ml of the modified peptide solution. Similarly, each rat of the second group was injected with 0.1 ml of the normal peptide solution. Each rat of the third group, the control group, was injected with 0.1 ml of 0.1% acetic acid solution. Immediately following these injections, each rat was injected intramuscularly with 24 mg per Kg body weight of tetracycline hydrochloride dissolved in 0.5 ml of water. A second dose of tetracycline hydrochloride was administered 48 hours later. The animals were sacrificed 24 hours after the second dose by CO2 narcosis. The lower metaphysis of the right femur was dissected out and fixed in a 10% aqueous solution of formaldehyde buffered at pH 7.2 by acetate buffer. Bone sections were prepared for measurement as described above.
Sprague-Dawley rats were used as test animals to determine bone mineral apposition rate, as described above. Male rats having weights between 280 and 380 g were subject to subcutaneous injection after one week of acclimatization. Each animal was injected with 200 μl of a 0.1% acetic acid test solution, solutions having been prepared at concentrations to obtain a dosage of about 25 nmol of polypeptide per animal. Each test dose was immediately followed by intramuscular injection of 24 mg per Kg of body weight of tetracycline hydrochloride. A second injection of tetracycline was made 48 hours later.
Bone mineral apposition rates were determined by measurements of the lower metaphysis of the right femur, as described previously. Results obtained in the two sets of experiments are summarized in Tables Seven and Eight and graphically depicted in FIGS. 8 and 9.
Bone mineral apposition rates were again determined by measurement of the lower metaphysis of the right femur. Results obtained are summarized in Table Nineteen and graphically depicted in FIG. 12. […]
In a final set of experiments, a polypeptide having the ninth amino acid, cysteine, replaced by the amino acid tyrosine, SEQ ID NO:43, was synthesized and tested for bone stimulatory activity. Four rats (about 300 grams) were each administered with 100 nmoles of material (in 400 μl 20 mM acetic acid solution) by subcutaneous injection along with tetracycline (5 mg per animal in 400 μl water), as described above. A second dosage of tetracycline was administered 48 hours later and the animals sacrificed 24 hours after that. The lower metaphysis of the right femur was examined to determine the bone mineral apposition rate. For comparison, experiments were performed using a control in which no compound was present in the acetic acid solution.

Q: Which Full autopsy findings [1] does the source give for CC[C@H](C)[C@H](NC(=O)CN)C(=O)NCC(=O)N[C@@H](CCCCN)C(=O)N[C@@H](CCCNC(=N)N)C(=O)N[C@H](C(=O)N[C@@H](CC(N)=O)C(=O)N[C@@H](CCC(=O)O)C(=O)N[C@@H](Cc1c[nH]cn1)C(=O)N[C@H](C(=O)N[C@@H](C)C(=O)N[C@@H](CC(=O)O)C(=O)N[C@@H](CS)C(=O)N[C@@H](CCCCN)C(=O)N[C@H](C(=O)N[C@@H](CCCCN)C(=O)N1CCC[C@H]1C(=O)N[C@@H](CC(N)=O)C(=O)N[C@H](C(=O)N[C@@H](CC(C)C)C(=O)N[C@@H](Cc1c[nH]cn1)C(=O)N[C@@H](CCCCN)C(=O)N[C@@H](CCCCN)C(=O)N[C@@H](C)C(=O)N[C@@H](C)C(=O)N[C@@H](CCC(=O)O)C(=O)N[C@H](C(=O)N[C@@H](CC(C)C)C(=O)N[C@@H](CCSC)C(=O)N[C@H](C(=O)N[C@@H](CC(C)C)C(=O)N[C@@H](CC(=O)O)C(=O)N[C@@H](CCC(N)=O)C(=O)N[C@@H](CC(N)=O)C(=O)N[C@@H](CCC(N)=O)C(=O)N1CCC[C@H]1C(=O)O)C(C)C)[C@@H](C)O)[C@@H](C)O)[C@@H](C)CC)[C@@H](C)O)[C@@H](C)O [SEQ ID NO:1] (H-GIGKRTNEHTADCKIKPNTLHKKAAETLMVLDQNQP-OH) here?
A: No ill effects were observed

Q: What does the source list for CC[C@H](C)[C@H](NC(=O)CNC(C)=O)C(=O)NCC(=O)N[C@@H](CCCCN)C(=O)N[C@@H](CCCNC(=N)N)C(=O)N[C@H](C(=O)N[C@@H](CC(N)=O)C(=O)N[C@@H](CCC(=O)O)C(=O)N[C@@H](Cc1c[nH]cn1)C(=O)N[C@H](C(=O)N[C@@H](C)C(=O)N[C@@H](CC(=O)O)C(=O)N[C@@H](CS)C(=O)N[C@@H](CCCCN)C(=O)N[C@H](C(=O)N[C@@H](CCCCN)C(=O)N1CCC[C@H]1C(=O)N[C@@H](CC(N)=O)C(=O)N[C@H](C(=O)N[C@@H](CC(C)C)C(=O)N[C@@H](Cc1c[nH]cn1)C(=O)N[C@@H](CCCCN)C(=O)N[C@@H](CCCCN)C(=O)N[C@@H](C)C(=O)N[C@@H](C)C(=O)N[C@@H](CCC(=O)O)C(=O)N[C@H](C(=O)N[C@@H](CC(C)C)C(=O)N[C@@H](CCSC)C(=O)N[C@H](C(=O)N[C@@H](CC(C)C)C(=O)N[C@@H](CC(=O)O)C(=O)N[C@@H](CCC(N)=O)C(=O)N[C@@H](CC(N)=O)C(=O)N[C@@H](CCC(N)=O)C(=O)N1CCC[C@H]1C(=O)O)C(C)C)[C@@H](C)O)[C@@H](C)O)[C@@H](C)CC)[C@@H](C)O)[C@@H](C)O [SEQ ID NO:2] (Ac-GIGKRTNEHTADCKIKPNTLHKKAAETLMVLDQNQP-OH)?
A: Autopsy findings [2]: No obvious pathology was observed; Histological evaluation of selected tissues [3]: No evidence of toxic lesions

Q: Which results are given for GIGKRTNEHTADCKI [SEQ ID NO:7]?
A: Stability when dissolved in dilute acids ([4]; 5 mM acetic acid, 1 mg/ml, analyzed weekly by capillary electrophoresis): degraded overtime; pH at which the peptide was most stable ([4]; 20 mM buffers pH 3.0 to 9.5, 1 mg/ml): 4.5; Bone Mineral Content Measured in Distal End of Femur, Mean ([5]; Administered over 56 Days): 0.1347 g; Bone Mineral Content Measured in Femoral Diaphysis, Mean ([5]; Administered over 56 Days): 0.2091 g; Bone Mineral Content Measured in Femoral Neck, Mean ([5]; Administered over 56 Days): 0.0274 g; Bone Mineral Content Measured in Proximal End of Femur, Mean ([5]; Administered over 56 Days): 0.1328 g; Bone Mineral Content Measured in Spine L1-L4, Mean ([5]; Administered over 56 Days): 0.4606 g; Bone Mineral Content Measured in Distant End of Femur, Mean ([5]; Administered over 100 Days): 0.1424 g; Bone Mineral Content Measured in Femoral Diaphysis, Mean ([5]; Administered over 100 Days): 0.2347 g; Bone Mineral Content Measured in Femoral Neck, Mean ([5]; Administered over 100 Days): 0.0351 g; Bone Mineral Content Measured in Proximal End of Femur, Mean ([5]; Administered over 100 Days): 0.1411 g; Bone Mineral Content Measured in Spine L1-L4, Mean ([5]; Administered over 100 Days): 0.4758 g; Mean Bone Apposition Rate ([6]; about 125 nmoles of polypeptide per Kg of body weight (Table Twenty)): 2.18 μm/day; Bone mineral apposition rate, Mean ([6]; male Sprague-Dawley rats 280-380 g, about 25 nmol per animal s.c., first set (Table Seven)): 1.41 μm per day
